Assay results: patent US8492515B2 (priority 2008, dated 2013)
≈ marks a conversion by molar mass, not a printed value. Square brackets hold non-standard residues; d marks the D form. Peptide text beside a SMILES is read from it. Ac6c = NC1(C(=O)O)CCCCC1

Columns and labels:
E. coli SEQ102 = details: SEQ102, 16 h
Description: (§1) To investigate the activity of the A3-APO metabolites, Chex1-Arg20 single chain unit and an Arg7-Arg20 common cleavage fragment were synthesized and studied for their ability to kill Enterobacteriaceae strains in undiluted Muller-Hinton broth, a true measure of potential clinical viability (Otvos et al., 2005. J. Med. Chem. 48: 5349-5359). The peptides of the invention were made on a CEM Liberty automated synthesizer with standard Fmoc-chemistry. The peptides were detached from the resin with the carboxyl terminus of the C-terminal Arg residue being in the form of an amino amide, —C(O)—NH2 (“Chex1-Arg20-NH2” and “Arg7-Arg20-NH2”), while still in the microwave chamber, and were purified by RP-HPLC. […] The biological studies carried out on chemically synthesized peptides in this example and succeeding examples were carried out on the C-terminal modified versions of the peptides wherein the C-terminal carboxylic acid function was in the form of an amide, —C(O)—NH2. Antibacterial growth inhibition assays were performed using sterile 96-well polypropylene plates (Nunc F96 microtiter plates) in a final volume of 100 μL as described previously (Cudic et al., 2002. Peptides 23: 271-283). The cell concentrations were estimated by measuring the ultraviolet absorbance at 600 nm and applying the formula cfu/mL=A600(3.8×10^8), where cfu is the number of colony-forming units. Briefly, 50 μL of a suspension of midlogarithmic phase bacterial cultures diluted to 5×10^5 cfu/mL in Muller-Hinton broth (MHB) was added to 50 μL of serially diluted peptides also dissolved in MHB. The final peptide concentration was 128 μg/mL. Cultures were then incubated at 37° C., 5% CO2 for 16-20 h without shaking, and growth inhibition was measured by recording the absorbance at 600 nm using a microplate reader. […] The minimal inhibitory concentration indicates the lowest peptide dose where no visible bacterial growth is detected after 16 hours incubation in full strength Muller-Hinton broth at 37° C. The peptide Chex-pyrr-Dap dimer was also included in the study. […] (Cudic et al., 2002. Peptides 23: 271-283).

[1] = system: Enterobacteriaceae strains
Description: as §1

S. typhimurium G10215 = details: G10215, 16 h
Description: as §1

K. pneumoniae HK123 = details: HK123, 16 h
Description: as §1

E. coli HK179 = details: HK179, 16 h
Description: as §1

E. coli D31 = details: full strength Muller-Hinton broth, 16 hours, 37° C.
Description: as §1

[2] = system: Klebsiella pneumoniae isolates
Description: as §1

[3] = format: in vitro ADME, CD-1 mice
Procedure: Female CD-1 mice of 8 weeks were retroorbitally bled and 6 μg A3-APO peptide dissolved in 10 μL phosphate buffered saline (PBS) was immediately added to approximately 100 μL retrieved blood. After 30 min incubation at 37° C., the cells were removed by 10 min centrifugation at 2,000 rpm, 50 μL PBS was added to 50 μL of the plasma, followed by addition of 45 μL of 15% TCA. The rest of the analysis was done as described for the serum stability studies. Control blood was treated identically without A3-APO peptide addition. […] While the double charged ion at 2519 M/z from the serum studies could not be detected, the two serum components at 1798 and 2969 M/z and two new peaks at 2321 and 2577 M/z were present. These latter peptide species correspond to stable early degradation products.
Ex vivo blood stability studies were repeated on Chex1-Arg20 according to the protocol described above “Stability of Peptide A3-APO in Whole Blood”. […] The only degradation product that could be detected, at about one third of the peak height of the Chex1-Arg20 starting material, was at 2321 M/z, representing a fragment with the C-terminal arginine missing. Apparently this cleavage product is the Chex1-Val19 fragment observed for peptide A3-APO when the stability studies were done in blood ex vivo (see and compare with the lower panel of FIG. 2 and Table 1). […]

Escherichia coli 5770 = assay: Mouse survival after last dose, systemic infection model without cisplatin pretreatment; format: in vivo
Procedure: The survival rate and the dynamics of survival of mice after the last dose of an antibacterial peptide treatment (12 hours post-infection) were measured in a mouse model of Escherichia coli 5770 systemic infection. In this particular study, the animals were not pretreated with cisplatin. Ten animals were used in each group. […] In the control (infected, non-treated) and the imipenem treated rows, the first numbers reflect the number of surviving animals on the day of assay measuring the efficacy of the Chex1-Arg20 and the second numbers are the surviving control animals on the day of the A3-APO efficacy assay.

Structure (SMILES): CC(C)C[C@H](NC(=O)[C@H](Cc1ccc(O)cc1)NC(=O)[C@@H]1CCCN1C(=O)[C@H](CCCNC(=N)N)NC(=O)[C@@H]1CCCN1C(=O)[C@H](CCCCN)NC(=O)[C@H](CC(=O)O)NC(=O)[C@@H]1CCCN1C(=O)[C@H](CCCNC(=N)N)NC(=O)C1(N)CCCCC1)C(=O)N1CCC[C@H]1C(=O)N[C@@H](CCCNC(=N)N)C(=O)N1CCC[C@H]1C(=O)N[C@@H](CCCNC(=N)N)C(=O)N1CCC[C@H]1C(=O)N1CCC[C@H]1C(=O)N[C@@H](CCCNC(=N)N)C(=O)N1CCC[C@H]1C(=O)N[C@H](C(=O)N[C@@H](CCCNC(=N)N)C(=O)O)C(C)C [Chex1-Arg20, Chex-Arg-Pro-Asp-Lys-Pro-Arg-Pro-Tyr-Leu-Pro-Arg-Pro-Arg--Pro-Pro-Arg-Pro-Val-Arg] (H-[Ac6c]RPDKPRPYLPRPRPPRPVR-OH; N-terminus and C-terminus assumed)
- MIC against E. coli SEQ102 (E. coli SEQ102): 32 µg/mL (≈ 12.9 µM)
- IC50 [1]: 100 to 500 nM
- activity relative to A3-APO in milligram/L terms ([1]; on average): twice as active
- activity relative to A3-APO in molar terms ([1]; on average): 5 times
- potency in killing resistant bacteria relative to A3-APO ([1]; overall, Table 3): twice as potent
- MIC against S. typhimurium G10215 (S. typhimurium G10215): 4 µg/mL (≈ 1.62 µM)
- MIC against K. pneumoniae HK123 (K. pneumoniae HK123): 8 µg/mL (≈ 3.23 µM)
- MIC against E. coli HK179 (E. coli HK179): 2 µg/mL (≈ 0.808 µM)
- MIC against E. coli D31 (E. coli D31): 8 µg/mL (≈ 3.23 µM)
- minimal bactericidal concentrations (MBC) [2]: 8 µg/mL (≈ 3.23 µM)
- peak height of the only degradation product (2321 M/z) relative to starting material [3]: about one third
- number of surviving mice (10 animals each) (Escherichia coli 5770; 2.5 mg/kg, 0 h after last dose): 10
- number of surviving mice (10 animals each) (Escherichia coli 5770; 2.5 mg/kg, 3 h after last dose): 7/7
- number of surviving mice (10 animals each) (Escherichia coli 5770; 2.5 mg/kg, 6 h after last dose): 7
- number of surviving mice (10 animals each) (Escherichia coli 5770; 2.5 mg/kg, 9 h after last dose): 5
- number of surviving mice (10 animals each) (Escherichia coli 5770; 2.5 mg/kg, 12 h after last dose): 4
- number of surviving mice (10 animals each) (Escherichia coli 5770; 5 mg/kg, 0 h after last dose): 9
- number of surviving mice (10 animals each) (Escherichia coli 5770; 5 mg/kg, 3 h after last dose): 9
- number of surviving mice (10 animals each) (Escherichia coli 5770; 5 mg/kg, 6 h after last dose): 8
- number of surviving mice (10 animals each) (Escherichia coli 5770; 5 mg/kg, 9 h after last dose): 6
- number of surviving mice (10 animals each) (Escherichia coli 5770; 5 mg/kg, 12 h after last dose): 5
- number of surviving mice (10 animals each) (Escherichia coli 5770; 10 mg/kg, 0 h after last dose): 10
- number of surviving mice (10 animals each) (Escherichia coli 5770; 10 mg/kg, 3 h after last dose): 10
- number of surviving mice (10 animals each) (Escherichia coli 5770; 10 mg/kg, 6 h after last dose): 10
- number of surviving mice (10 animals each) (Escherichia coli 5770; 10 mg/kg, 9 h after last dose): 9
- number of surviving mice (10 animals each) (Escherichia coli 5770; 10 mg/kg, 12 h after last dose): 5
